Measured values taken from EP4458353A1, “ANTICARIOGENIC SYNERGETIC COMPOSITION FOR ORAL CARE” (SkyLab AG, priority 2023, dated 2024).
In brackets after ≈: the same amount, converted by molar mass. Where two headings read alike, the source gives them in different places.

Experiments:
Streptococcus mutans = test: Minimum inhibitory concentration (MIC), serial two-fold dilution with resazurin test; format: cell-based; conditions: Streptococcus mutans, S. mutans
S. mutans biofilms = test: Biofilm formation on hydroxyapatite disks (CFU in resuspended biofilm); format: cell-based; conditions: for %N Control: percentage of S. mutans CFU on the disk in control experiment; for N S.mutans (CFU/mL): resuspended biofilm from hydroxyapatite disks, 64h incubation
Method: Example ? 6. Anti-biofilm activity of individual substances selected from naringenin, guava leaf extract, and lysozyme, or the composition thereof, is assessed from the rate of biofilm formation on hydroxyapatite disks, with the use of the following procedure: • 1) Prepare the heart-brain broth (DM106D, Mast Group Ltd., U.K.) and Columbian agar supplemented with defibrinated blood (OOO "GEM" Cat. No BP-023) in accordance with the manufacturer's instruction • 2) All stages of preparation of the bacterial culture suspensions were similar to those described in Example 1. • 3) Prepare saliva, which is required for biofilm formation and provides the bacteria adhesion to the surface of hydroxyapatite disks. […] Centrifuge the collected saliva at 12 000 rpm for 30 minutes at 4°C. Harvest the supernatant into the clean tube and subject to pasteurization at 65°C for 30 minutes followed by one more centrifugation.
The efficacy of saliva pasteurization is assessed from direct inoculation on Columbian blood agar. The plates are incubated under aerobic and anaerobic conditions at 37°C for 72 hours. The saliva is considered sterile if no growth of bacterial and fungal colonies is observed within 72 hours of observation.
Store the saliva at temperature -80 °C before the use. • 4) To form the salivary film on the surface of hydroxyapatite disk put three sterile disks (sterilization by autoclaving at 132 °C for 20 min) in each of 9 Petri dishes 40 mm in diameter abd incubate in 3 mL of the pasteurized saliva at room temperature for 4 hours with gentle shaking on orbital shaker. Then remove the saliva and add 3 mL of nutritive medium containing 1.2 mL of heart-brain broth; 1.2 mL of pasteurized saliva; 0.6 mL of S. mutans suspension at concentration of 10^6 CFU/mL into the Petri dish. The formation of S. mutans biofilm on the disk surface is achieved at 37°C under the atmosphere of 5 % CO2 in the environment, with gentle shaking on orbital shaker for 16 hours. • 5) After 16-hour incubation remove old nutritive medium from the dishes and add a fresh portion of heart-brain broth containing S. mutans suspension and the pasteurized saliva. Add the active substances selected from naringenin, guava leaf extract and lysozyme or combination thereof to final concentration 0.1 or 1.0 mg/mL. Repeat the procedure of medium replacement twice daily within […] and 8 h after the first change. • 6) To remove the biofilm formed in the disk surface take the disks away from Petri dishes after the incubation for 2 days and rinse in the large volume of PBS (pH 7.2). Then place the disks into sterile Petri dishes with 3 mL of PBS (pH 7.2) and shake vigorously on the orbital shaker for 30 minutes. […]

lysozyme = target: T1, lysozyme (Gallus gallus, UniProt P00698); test: Lysozyme and naringenin compatibility: lysozyme activity by fall of optical density of Micrococcus lysodeicticus cells; format: biochemical; conditions: added to the buffered medium with lysozyme; 30, 60, 120 minutes at 37 degrees
T1 construct: Lysozyme used in all tests was 99% anhydrous lysozyme hydrochloride isolated from the egg yolks; from tissue; host or cells: eggs ('egg yolks' as printed)
Method: Example ? 8. Assessment of lysozyme and naringenin compatibility Potential impact of naringenin on lysozyme activity was assessed through the measurement of lysozyme activity by the method described in the patent RU2294373C2. To determine the lysozyme activity the optical density values obtained for the control wells are subtracted from the optical density values obtained for the wells, which were incubated in the presence of lysozyme. The bacterial cells Micrococcus lysodeicticus in amount corresponding to the optical density 0.6 are mixed with the equal volume of buffer containing lysozyme, naringenin, guava leaf CO2 extract, while no lysozyme is added into the control well. Then the plate is incubated for 30, 60, 120 minutes at 37 degrees, and the optical density is measured. The fall of optical density indicates the lysozyme activity. Then the final density value is subtracted from the initial density value followed by normalization for incubation time and the enzyme concentration in accordance with the procedure described in RU2294373C2.

T1 sequence (P00698 19-147): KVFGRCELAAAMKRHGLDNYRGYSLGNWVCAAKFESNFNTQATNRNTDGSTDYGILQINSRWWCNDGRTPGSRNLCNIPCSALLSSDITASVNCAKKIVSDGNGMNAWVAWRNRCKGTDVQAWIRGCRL

## O=C1C[C@@H](c2ccc(O)cc2)Oc2cc(O)cc(O)c21 [Naringenin, naringenin]
Streptococcus mutans; 24 h at 37 °C, read-out: MIC value in individual replicate Replicate 1
  MIC: > 1600 µg/mL
Streptococcus mutans; 24 h at 37 °C, read-out: MIC value in individual replicate Replicate 2
  MIC: > 1600 µg/mL
Streptococcus mutans; 24 h at 37 °C, read-out: MIC value in individual replicate Replicate 3
  MIC: 800 µg/mL (≈ 2940 µM)
Streptococcus mutans; 24 h at 37 °C, read-out: MIC value in individual replicate Replicate 4
  MIC: 400 µg/mL (≈ 1470 µM)
Streptococcus mutans; 24 h at 37 °C, read-out: MIC value in individual replicate Replicate 5
  MIC: 800 µg/mL (≈ 2940 µM)
Streptococcus mutans; median of 5 replicates, read-out: MIC Median value
  MIC: 800 µg/mL (≈ 2940 µM)
S. mutans biofilms; Csubstance 0.1 mg/mL
  %N Control: 66.7%
  N S.mutans (CFU/mL): 2.8·10^6 CFU/mL
S. mutans biofilms; Csubstance 1.0 mg/mL
  %N Control: 50.0%
  N S.mutans (CFU/mL): 2.1·10^6 CFU/mL
lysozyme
  effect on lysozyme activity: neither affect lysozyme nor decrease the lysozyme activity
